Test results from patent US20200397816A1, “METHODS TO TREAT INFLAMMATORY AND SMOOTH MUSCLE CELL PROLIFERATION DISORDERS” (THE TRUSTEES OF INDIANA UNIVERSITY, priority 2019, published 2020).

Assays:
[1] = test system: pSTAT3 (Y705); assay: EMAP II induced pSTAT3 western blot in RAW 264.7 macrophages; format: cell-based, mouse; conditions: RAW 264.7 macrophages, EMAP II 24 hours
Protocol: (§1) After appropriate treatments, protein lysates were prepared by using RIPA buffer supplemented with phosphatase and protease inhibitors (Thermo Fischer Scientific). Alpha-tubulin was used as a loading control. For nuclear and cytoplasmic fractionation, NE-PER kit from Thermo Fischer Scientific was used. Western blots were performed according to standard methods and quantified using densitometry using Image Studio Lite software from LI-COR Biosciences.
as §1, with “(Thermo Fisher” for “(Thermo Fischer”

[2] = test system: EGR1; assay: EGR1 protein western blot (whole cell lysates, nuclear fractions) in RAW 264.7 macrophages; format: cell-based, mouse; conditions: macrophages (RAW 264.7); MEK inhibitor 10 μM; EMAP II 2 hours
Protocol: (§2) RAW 264.7 (ATCC) mouse macrophages and Human Embryonic Kidney (HEK) 293T cells were cultured in DMEM media with 10% fetal bovine serum […] and glutamine HEPES buffer and beta-mercaptoethanol were added to the growth medium used for RAW 264.7 macrophages. Primary human pulmonary artery smooth muscle cells (hPASMC) purchased from Lonza (Walkersville, Md.) were cultured in complete growth medium containing smooth muscle growth media-2 (SmGM-2) with 10% FBS and growth factors provided as a kit by the supplier (Lonza, (Walkersville, Md.). THP-1 human monocyte cells were cultured in RPMI 1640 with 10% FBS and glutamine Cells were cultured in a humidified atmosphere with 5% CO2 at 370 C. For all studies passages 5-14 were used for RAW 264.7 and passages 5-10 were used for hPASMCs. For treatment studies, subconfluent cells plated in multi-well plates were serum starved and if required, pretreated for with inhibitors before stimulating with 2 μg/mL recombinant EMAP II.
as §1
RAW 264.7 (ATCC) mouse macrophages and HEK-293T (ATCC) cells were cultured in DMEM media with 10% (v/v) fetal bovine serum (FBS) and 2 mM glutamine HEPES buffer and beta-mercaptoethanol were added to the growth medium used for RAW 264.7 macrophages. Primary human pulmonary artery smooth muscle cells (hPASMC) purchased from Lonza (Walkersville, Md.) were cultured in complete growth medium containing smooth muscle growth media-2 (SmGM-2) with 10% FBS and growth factors provided as a kit by the supplier (Lonza, (Walkersville, Md.). THP-1 human monocyte cells were cultured in RPMI 1640 with 10% FBS and glutamine Cells were cultured in a humidified atmosphere with 5% CO2 at 37° C. For all studies passages 5-14 were used for RAW 264.7 and passages 5-10 were used for hPASMCs. For treatment studies, subconfluent cells plated in multi-well plates were serum starved and if required, pretreated with inhibitors before stimulation with 2 μg/mL recombinant EMAP II.
as §1, with “Fisher” for “Fischer”, “For nuclear and cytoplasmic fractionation, NE-PER kit from Thermo Fischer Scientific was used.” left out

[3] = test system: EGR1; assay: EGR1 protein western blot and immunofluorescence in hPASMC; format: cell-based, human; conditions: SMCs (hPASMC); MEK inhibitor 10 μM; EMAP II 1 hour
Protocol: as §2, §1
Primary hPASMCs cells or human THP-1 macrophages were seeded in Nunc Lab-Tek™ II 4-well imaging plates (Thermo Fisher Scientific) chamber well slides and cultured in growth medium. After the serum starvation cells were stimulated with EMAP II. Treated cells were rinsed with PBS and fixed with 4% paraformaldehyde at room temperature for 15 min and permeabilized with 0.1% Triton X-100 at room temperature for 10 min After washing with PBS three times, the cells were incubated with EGR1, 1amin, or pSphK1 antibody at 40C overnight. The cells were then rinsed with PBS three times and subsequently incubated with respective secondary antibody conjugated with Alex Fluor 647 and 488 or Phalloidin 488 at room temperature for 1 h. The cells were rinsed with PBS three times and coverslips were mounted with SlowFade Gold Antifade Mountant with DAPI (Thermo Fischer Scientific) and the cells were examined under Olympus microscope with 40× for EGR1 expression and with 60× for pSphK1 water immersion.
Knockdown of endogenous EGR1 was carried out by transfecting with 25 nM final concentration of ON-TARGETplus siRNAs specific for EGR1 or non-targeting control purchased from GE Dharmacon (Lafayette,CO) using Viromer Blue (Lipocalyx) per manufacturer's instructions. Cells were stimulated with EMAP II 48 h post-transfection.
RAW 264.7 (ATCC) mouse macrophages and HEK-293T (ATCC) cells were cultured in DMEM media with 10% (v/v) fetal bovine serum (FBS) and 2 mM glutamine HEPES buffer and beta-mercaptoethanol were added to the growth medium used for RAW 264.7 macrophages. […]

[4] = test system: EGR1; assay: EGR1 transcripts qRT-PCR in RAW 264.7 macrophages; format: cell-based, mouse; conditions: 10 μM pretreatment, EMAP II 45 minutes, normalized against Hprt1
Protocol: (§3) RAW 264.7 (ATCC) mouse macrophages and Human Embryonic Kidney (HEK) 293T cells were cultured in DMEM media with 10% fetal bovine serum […] and glutamine HEPES buffer and beta-mercaptoethanol were added to the growth medium used for RAW 264.7 macrophages. […]
(§4) Total RNA was extracted with TriZol using standard RNA extraction protocol and reverse transcribed with SuperScript III Reverse Transcriptase (Thermo Fischer Scientific). SphK1, Tnf, Il6, EGR1, Gapdh, Hprt1 transcripts were quantified using PrimePCR SYBR Green assays from BioRad. […]
(§5) Total RNA was extracted with TriZol using standard RNA extraction protocol and reverse transcribed with SuperScript III Reverse Transcriptase (Thermo Fisher Scientific). SPHK1, Tnf, Il6, EGR1, Gapdh, Hprt1 transcripts were quantified using PrimePCR SYBR Green assays from BioRad.

[5] = test system: EGR1; assay: EGR1 transcripts qRT-PCR in hPASMC; format: cell-based, human; conditions: SMCs; 10 μM pretreatment; EMAP II 45 minutes; normalized against Gapdh
Protocol: as §3, §4, §5

[6] = test system: STAT3 transcription reporter plasmid; assay: STAT3 transcription reporter luciferase assay in HEK293-T cells; format: cell-based, human; conditions: inhibitor pretreatment 1 hour, luciferase after 24 hours
Protocol: (§6) Transfection and luciferase assay. Human Embryonic Kidney (HEK) 293-T cells cultured in DMEM media containing 10% serum were reverse co-transfected with pGL4.47fluc2P/SIE/Hygrol and pGL4.74 [hRluc/TK] using Attractene Transfection Reagent (301005, Qiagen) as per manufacturer's protocol. Pretreated with inhibitors for 1 hour as required. After the treatment cells were incubated for 24 hours and luciferase activity was measured using Dual-Glo Luciferase Assay (E2920, Promega) per manufacturer's guidelines.
as §6, with “HEK” for “Transfection and luciferase assay. Human Embryonic Kidney (HEK)”

Compound: Cc1nn(C)c2nc(NNC(=O)Nc3cc(Cl)nc(Cl)c3)cc(C(C)C)c12 [iS1PR2, JTE 013]
- EMAP II induced pSTAT3 (pSTAT3/STAT3) ([1]; inhibitor pretreatment 1 μM): significantly inhibited

Compound: O=C(NOCC1CC1)c1cc(Br)c(F)c(F)c1Nc1ccc(I)cc1Cl [iERK, PD184161, reference compound]
- EMAP II induced pSTAT3 (pSTAT3/STAT3) ([1]; inhibitor pretreatment 10 μM): significantly inhibited
- EMAP II induced EGR1 protein expression [2]: blocked
- EMAP II induced EGR1 protein expression [3]: blocked

Compound: CC(C)(C)C(=O)/C(=N/c1ccc(Cl)cc1)NNc1ccc(Cl)cc1 [iS1PR3, TY 52156]
- EMAP II induced pSTAT3 (pSTAT3/STAT3) ([1]; inhibitor pretreatment 1 μM): significantly inhibited

Compound: CCCCCCc1cccc(NC(=O)[C@H](N)CCP(=O)(O)O)c1 [iS1PR1, W146]
- EMAP II induced pSTAT3 (pSTAT3/STAT3) ([1]; inhibitor pretreatment 1 μM): significantly inhibited

Compound: N#CC[C@H](C1CCCC1)n1cc(-c2ncnc3[nH]ccc23)cn1 [iJAK1/2, Ruxolitinib]
- EMAP II induced pSTAT3 (pSTAT3/STAT3) ([1]; inhibitor pretreatment 1 μM): significantly inhibited

Compound: CC(=O)Nc1cccc(-n2c(=O)n(C3CC3)c(=O)c3c(Nc4ccc(I)cc4F)n(C)c(=O)c(C)c32)c1 [iERK1, Trametinib, reference compound]
- EMAP II induced EGR1 protein expression [2]: blocked
- EMAP II induced EGR1 protein expression [3]: blocked
- EMAP II induced EGR1 transcription [4]: inhibited
- EMAP II induced EGR1 transcription [5]: inhibited

Compound: Cc1cc(CS(=O)(=O)c2ccccc2)cc(OCc2ccc(CN3CCC[C@@H]3CO)cc2)c1 [iSphK1, PF543]
- EMAP II induced pSTAT3 (pSTAT3/STAT3) ([1]; inhibitor pretreatment 100 nM): significantly inhibited
- EMAP II induced pSTAT3 (pSTAT3/STAT3) ([1]; inhibitor pretreatment 100 nM, listed as PF543): inhibited
- EMAP II induced pSTAT3 (pSTAT3/STAT3) ([1]; inhibitor pretreatment 100 nM, listed as iSPHK1): significantly inhibited
- EMAP II induced luminescence of STAT3 transcription reporter plasmid [6]: significantly inhibited
